Measured values published in patent US11433136B2, “Polyacetal polymers, conjugates, particles and uses thereof” (THE GENERAL HOSPITAL CORPORATION, priority 2015, dated 2022).

Columns and labels:
CXCR4 = CXCR4 (Homo sapiens, UniProt P61073); conditions: cited from earlier work
[1] = tested on: human malignant glioma cells; conditions: cited from earlier work
[2] = tested on: fibroblast growth and collagen synthesis; conditions: cited from earlier work
leiomyoma cell = conditions: cultured cells; cited from earlier work
[3] = mouse, in vivo, po, 10 mg/kg
Experimental: The purpose of this single-dose PK study was to evaluate the in vivo drug release of Can-DPC in 4T1 tumor bearing animals by collecting whole blood, tumor, and liver tissue for bioanalytical quantification of polymer-conjugated and released drug (i.e., candesartan). In this example, the Can-DPC formulation (10 mg/kg) was administrated intravenously as a single bolus and compared directly with the PK profile of candesartan cilexetil administrated by oral gavage (10 mg/kg) using 0.5% HPMC as a vehicle (Table 5).
The mammary fat pads of Balb/C female mice (6-8 weeks old; Taconic) were implanted with syngeneic 4T1 mouse tumor cells (150,000 cells/per animal) obtained from ATCC. Tumors were allowed to develop for 10 days, reaching an average size of 150-450 mm^3 (caliper measurements), before the mice were randomized into three dose groups (Table 5). Following a single administration of the test agents (10 mg/kg) or vehicle alone, whole blood, tumor, and liver tissues were collected at 2, 24, 48 and 144 hrs post dose. In addition, intermediate submandibular bleeds (˜100 μL whole blood) were collected at 5 min, 30 min, 4 hrs, and 6 hrs (n=3 animals per timepoint) following the i.v. and p.o. dosing. […]

CXCR4, sequence (P61073 whole entry, species assumed): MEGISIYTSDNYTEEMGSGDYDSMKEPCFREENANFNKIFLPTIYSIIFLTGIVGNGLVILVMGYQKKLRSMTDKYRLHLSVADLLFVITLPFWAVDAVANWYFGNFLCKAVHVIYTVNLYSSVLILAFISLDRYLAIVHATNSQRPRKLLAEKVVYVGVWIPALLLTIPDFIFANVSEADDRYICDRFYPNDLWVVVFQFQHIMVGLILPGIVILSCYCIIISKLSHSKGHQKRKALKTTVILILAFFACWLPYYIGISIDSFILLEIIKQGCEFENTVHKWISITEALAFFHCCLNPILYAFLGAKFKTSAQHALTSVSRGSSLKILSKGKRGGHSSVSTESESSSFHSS

SMILES: c1cc(CN2CCCNCCNCCCNCC2)ccc1CN1CCCNCCNCCCNCC1 [AMD3100, 1,1′-[1,4-phenylene-bis(methylene)]-bis-1,4,8,11-tetraazacyclotetradecane]
- fibrosis (CXCR4): can reduce fibrosis

SMILES: Cc1ccc(=O)n(-c2ccccc2)c1 [PFD, 5-methyl-1-phenyl-2(1H)-pyridone]
- TGF-b expression [1]: reduce TGF-b expression in human malignant glioma cells
- fibroblast growth and collagen synthesis [2]: inhibitory effect on fibroblast growth and collagen synthesis
- leiomyoma cell proliferation and collagen production (leiomyoma cell): reduce leiomyoma cell proliferation and collagen production in cultured cells

SMILES: CCOc1nc2cccc(C(=O)OC(C)OC(=O)OC3CCCCC3)c2n1Cc1ccc(-c2ccccc2-c2nn[nH]n2)cc1 (centres unmarked) [candesartan cilexetil]
- candesartan in liver [3]: non-detectable
